Reference: ChEMBL document CHEMBL3352237, “Synthesis and biological evaluation of novel peptide BF2 as an antibacterial agent against clinical isolates of vancomycin-resistant enterococci” (J Med Chem, 2014)
Converted amounts (≈) assume the structure as drawn.

Assays:
Assay type in all cases: functional
Enterococcus [1] = test: Antibacterial activity against vancomycin-resistant Enterococcus ATCC 51299 after overnight incubation by two-fold serial dilution method
Enterococcus [2] = test: Antibacterial activity against vancomycin-resistant Enterococcus ATCC 29212 after overnight incubation by two-fold serial dilution method
Enterococcus faecalis [3] = test: Antibacterial activity against vancomycin-resistant Enterococcus faecalis clinical isolate 5814 after overnight incubation by two-fold serial dilution method
Enterococcus faecalis [4] = test: Antibacterial activity against vancomycin-resistant Enterococcus faecalis clinical isolate 7670 after overnight incubation by two-fold serial dilution method
Enterococcus faecalis [5] = test: Antibacterial activity against vancomycin-resistant Enterococcus faecalis clinical isolate 22626 after overnight incubation by two-fold serial dilution method
Enterococcus faecalis [6] = test: Antibacterial activity against vancomycin-resistant Enterococcus faecalis clinical isolate 7077 after overnight incubation by two-fold serial dilution method
Enterococcus faecalis [7] = test: Antibacterial activity against vancomycin-resistant Enterococcus faecalis clinical isolate 7079 after overnight incubation by two-fold serial dilution method
Enterococcus faecalis [8] = test: Antibacterial activity against vancomycin-resistant Enterococcus faecalis clinical isolate 7846 after overnight incubation by two-fold serial dilution method
Enterococcus faecalis [9] = test: Antibacterial activity against vancomycin-resistant Enterococcus faecalis clinical isolate 21/235 after overnight incubation by two-fold serial dilution method
Enterococcus faecalis [10] = test: Antibacterial activity against vancomycin-resistant Enterococcus faecalis clinical isolate 5642 after overnight incubation by two-fold serial dilution method
Enterococcus faecalis [11] = test: Antibacterial activity against vancomycin-resistant Enterococcus faecalis clinical isolate 6093 after overnight incubation by two-fold serial dilution method
Enterococcus faecalis [12] = test: Antibacterial activity against vancomycin-resistant Enterococcus faecalis clinical isolate 22/203 after overnight incubation by two-fold serial dilution method
Enterococcus faecalis [13] = test: Antibacterial activity against vancomycin-resistant Enterococcus faecalis clinical isolate 387702 after overnight incubation by two-fold serial dilution method
Enterococcus faecalis [14] = test: Antibacterial activity against vancomycin-resistant Enterococcus faecalis clinical isolate 27728 after overnight incubation by two-fold serial dilution method
Enterococcus faecalis [15] = test: Antibacterial activity against vancomycin-resistant Enterococcus faecalis clinical isolate 5648 after overnight incubation by two-fold serial dilution method
Enterococcus faecium [16] = test: Antibacterial activity against vancomycin-resistant Enterococcus faecium clinical isolate 17301 after overnight incubation by two-fold serial dilution method
Enterococcus faecium [17] = test: Antibacterial activity against vancomycin-resistant Enterococcus faecium clinical isolate 7/27 after overnight incubation by two-fold serial dilution method
Enterococcus faecium [18] = test: Antibacterial activity against vancomycin-resistant Enterococcus faecium clinical isolate 23/240 after overnight incubation by two-fold serial dilution method
Enterococcus faecium [19] = test: Antibacterial activity against vancomycin-resistant Enterococcus faecium clinical isolate 10177 after overnight incubation by two-fold serial dilution method
Enterococcus faecium [20] = test: Antibacterial activity against vancomycin-resistant Enterococcus faecium clinical isolate 28/211 after overnight incubation by two-fold serial dilution method
Enterococcus faecium [21] = test: Antibacterial activity against vancomycin-resistant Enterococcus faecium clinical isolate 151495 after overnight incubation by two-fold serial dilution method
Enterococcus faecium [22] = test: Antibacterial activity against vancomycin-resistant Enterococcus faecium clinical isolate 15/213 after overnight incubation by two-fold serial dilution method
Enterococcus faecium [23] = test: Antibacterial activity against vancomycin-resistant Enterococcus faecium clinical isolate 14643 after overnight incubation by two-fold serial dilution method
Enterococcus faecium [24] = test: Antibacterial activity against vancomycin-resistant Enterococcus faecium clinical isolate 5396 after overnight incubation by two-fold serial dilution method
Enterococcus faecium [25] = test: Antibacterial activity against vancomycin-resistant Enterococcus faecium clinical isolate 31176 after overnight incubation by two-fold serial dilution method
Enterococcus faecium [26] = test: Antibacterial activity against vancomycin-resistant Enterococcus faecium clinical isolate 31386 after overnight incubation by two-fold serial dilution method
Enterococcus faecium [27] = test: Antibacterial activity against vancomycin-resistant Enterococcus faecium clinical isolate 3864 after overnight incubation by two-fold serial dilution method
Enterococcus faecium [28] = test: Antibacterial activity against vancomycin-resistant Enterococcus faecium clinical isolate 27/16917 after overnight incubation by two-fold serial dilution method; conditions: isolate 27/1691
Enterococcus faecium [29] = test: Antibacterial activity against vancomycin-resistant Enterococcus faecium clinical isolate 12875 after overnight incubation by two-fold serial dilution method
Enterococcus faecium [30] = test: Antibacterial activity against vancomycin-resistant Enterococcus faecium clinical isolate 27/221 after overnight incubation by two-fold serial dilution method
Enterococcus faecium [31] = test: Antibacterial activity against vancomycin-resistant Enterococcus faecium clinical isolate 8/224 after overnight incubation by two-fold serial dilution method
Enterococcus faecium [32] = test: Antibacterial activity against vancomycin-resistant Enterococcus faecium clinical isolate 147969 after overnight incubation by two-fold serial dilution method
Enterococcus faecium [33] = test: Antibacterial activity against vancomycin-resistant Enterococcus faecium clinical isolate 29/203 after overnight incubation by two-fold serial dilution method
Enterococcus faecium [34] = test: Antibacterial activity against vancomycin-resistant Enterococcus faecium clinical isolate 30/48 after overnight incubation by two-fold serial dilution method
Enterococcus faecium [35] = test: Antibacterial activity against vancomycin-resistant Enterococcus faecium clinical isolate 16475 after overnight incubation by two-fold serial dilution method
Enterococcus faecium [36] = test: Antibacterial activity against vancomycin-resistant Enterococcus faecium clinical isolate 16115 after overnight incubation by two-fold serial dilution method
Enterococcus faecium [37] = test: Antibacterial activity against vancomycin-resistant Enterococcus faecium clinical isolate 5484 after overnight incubation by two-fold serial dilution method
Enterococcus faecium [38] = test: Antibacterial activity against vancomycin-resistant Enterococcus faecium clinical isolate 12/266 after overnight incubation by two-fold serial dilution method
Enterococcus faecium [39] = test: Antibacterial activity against vancomycin-resistant Enterococcus faecium clinical isolate 6/22 after overnight incubation by two-fold serial dilution method
Enterococcus faecium [40] = test: Antibacterial activity against vancomycin-resistant Enterococcus faecium clinical isolate 18906 after overnight incubation by two-fold serial dilution method
Enterococcus faecium [41] = test: Antibacterial activity against vancomycin-resistant Enterococcus faecium clinical isolate 13246 after overnight incubation by two-fold serial dilution method

H-RWRLLLLKKF-OH
MIC (Enterococcus [1]): 25 µg/mL | MIC (Enterococcus [2]): 25 µg/mL | MIC (Enterococcus faecalis [3]): 25 µg/mL | MIC (Enterococcus faecalis [4]): 25 µg/mL | MIC (Enterococcus faecalis [5]): 25 µg/mL | MIC (Enterococcus faecalis [6]): 25 µg/mL | MIC (Enterococcus faecalis [7]): 25 µg/mL | MIC (Enterococcus faecalis [8]): 25 µg/mL | MIC (Enterococcus faecalis [9]): 25 µg/mL | MIC (Enterococcus faecalis [10]): 25 µg/mL | MIC (Enterococcus faecalis [11]): 25 µg/mL | MIC (Enterococcus faecalis [12]): 25 µg/mL | MIC (Enterococcus faecalis [13]): 25 µg/mL | MIC (Enterococcus faecalis [14]): 25 µg/mL | MIC (Enterococcus faecalis [15]): 25 µg/mL | MIC (Enterococcus faecium [16]): 25 µg/mL | MIC (Enterococcus faecium [17]): 25 µg/mL | MIC (Enterococcus faecium [18]): 25 µg/mL | MIC (Enterococcus faecium [19]): 25 µg/mL | MIC (Enterococcus faecium [20]): 25 µg/mL | MIC (Enterococcus faecium [21]): 25 µg/mL | MIC (Enterococcus faecium [22]): 25 µg/mL | MIC (Enterococcus faecium [23]): 25 µg/mL | MIC (Enterococcus faecium [24]): 25 µg/mL | MIC (Enterococcus faecium [25]): 25 µg/mL | MIC (Enterococcus faecium [26]): 25 µg/mL | MIC (Enterococcus faecium [27]): 25 µg/mL | MIC (Enterococcus faecium [28]): 25 µg/mL | MIC (Enterococcus faecium [29]): 25 µg/mL | MIC (Enterococcus faecium [30]): 25 µg/mL | MIC (Enterococcus faecium [31]): 25 µg/mL | MIC (Enterococcus faecium [32]): 25 µg/mL | MIC (Enterococcus faecium [33]): 25 µg/mL | MIC (Enterococcus faecium [34]): 25 µg/mL | MIC (Enterococcus faecium [35]): 25 µg/mL | MIC (Enterococcus faecium [36]): 25 µg/mL | MIC (Enterococcus faecium [37]): 25 µg/mL | MIC (Enterococcus faecium [38]): 25 µg/mL | MIC (Enterococcus faecium [39]): 25 µg/mL | MIC (Enterococcus faecium [40]): 25 µg/mL | MIC (Enterococcus faecium [41]): 25 µg/mL

CN[C@H](CC(C)C)C(=O)N[C@H]1C(=O)N[C@@H](CC(N)=O)C(=O)N[C@H]2C(=O)N[C@H]3C(=O)N[C@H](C(=O)N[C@H](C(=O)O)c4cc(O)cc(O)c4-c4cc3ccc4O)[C@H](O)c3ccc(c(Cl)c3)Oc3cc2cc(c3O[C@@H]2O[C@H](CO)[C@@H](O)[C@H](O)[C@H]2O[C@H]2C[C@](C)(N)[C@H](O)[C@H](C)O2)Oc2ccc(cc2Cl)[C@H]1O [VANCOMYCIN]
MIC (Enterococcus [1]): 64 µg/mL (≈ 44.2 µM) | MIC (Enterococcus [2]): 2 µg/mL (≈ 1.38 µM) | MIC (Enterococcus faecium [18]): 64 µg/mL (≈ 44.2 µM) | MIC (Enterococcus faecium [19]): 64 µg/mL (≈ 44.2 µM) | MIC (Enterococcus faecium [20]): 64 µg/mL (≈ 44.2 µM) | MIC (Enterococcus faecium [24]): 64 µg/mL (≈ 44.2 µM) | MIC (Enterococcus faecium [25]): 64 µg/mL (≈ 44.2 µM) | MIC (Enterococcus faecium [26]): 64 µg/mL (≈ 44.2 µM) | MIC (Enterococcus faecium [27]): 64 µg/mL (≈ 44.2 µM) | MIC (Enterococcus faecium [28]): 64 µg/mL (≈ 44.2 µM) | MIC (Enterococcus faecium [29]): 64 µg/mL (≈ 44.2 µM) | MIC (Enterococcus faecium [30]): 64 µg/mL (≈ 44.2 µM) | MIC (Enterococcus faecium [31]): 64 µg/mL (≈ 44.2 µM) | MIC (Enterococcus faecium [32]): 64 µg/mL (≈ 44.2 µM) | MIC (Enterococcus faecium [34]): 64 µg/mL (≈ 44.2 µM) | MIC (Enterococcus faecium [37]): 64 µg/mL (≈ 44.2 µM) | MIC (Enterococcus faecium [39]): 64 µg/mL (≈ 44.2 µM) | MIC (Enterococcus faecium [40]): 64 µg/mL (≈ 44.2 µM)

H-HWRLLLLKKH-OH
MIC (Enterococcus [1]): 25 µg/mL | MIC (Enterococcus [2]): 25 µg/mL | MIC (Enterococcus faecalis [3]): 25 µg/mL | MIC (Enterococcus faecalis [4]): 25 µg/mL | MIC (Enterococcus faecalis [5]): 25 µg/mL | MIC (Enterococcus faecalis [6]): 25 µg/mL | MIC (Enterococcus faecalis [7]): 25 µg/mL | MIC (Enterococcus faecalis [8]): 25 µg/mL | MIC (Enterococcus faecalis [9]): 25 µg/mL | MIC (Enterococcus faecalis [10]): 25 µg/mL | MIC (Enterococcus faecalis [11]): 25 µg/mL | MIC (Enterococcus faecalis [12]): 25 µg/mL | MIC (Enterococcus faecalis [13]): 25 µg/mL | MIC (Enterococcus faecalis [14]): 25 µg/mL | MIC (Enterococcus faecalis [15]): 25 µg/mL | MIC (Enterococcus faecium [16]): 25 µg/mL | MIC (Enterococcus faecium [17]): 25 µg/mL | MIC (Enterococcus faecium [18]): 25 µg/mL | MIC (Enterococcus faecium [19]): 25 µg/mL | MIC (Enterococcus faecium [20]): 25 µg/mL | MIC (Enterococcus faecium [21]): 25 µg/mL | MIC (Enterococcus faecium [22]): 25 µg/mL | MIC (Enterococcus faecium [23]): 25 µg/mL | MIC (Enterococcus faecium [24]): 25 µg/mL | MIC (Enterococcus faecium [25]): 25 µg/mL | MIC (Enterococcus faecium [26]): 25 µg/mL | MIC (Enterococcus faecium [27]): 25 µg/mL | MIC (Enterococcus faecium [28]): 25 µg/mL | MIC (Enterococcus faecium [29]): 25 µg/mL | MIC (Enterococcus faecium [30]): 25 µg/mL | MIC (Enterococcus faecium [31]): 25 µg/mL | MIC (Enterococcus faecium [32]): 25 µg/mL | MIC (Enterococcus faecium [33]): 25 µg/mL | MIC (Enterococcus faecium [34]): 25 µg/mL | MIC (Enterococcus faecium [35]): 25 µg/mL | MIC (Enterococcus faecium [36]): 25 µg/mL | MIC (Enterococcus faecium [37]): 25 µg/mL | MIC (Enterococcus faecium [38]): 25 µg/mL | MIC (Enterococcus faecium [39]): 25 µg/mL | MIC (Enterococcus faecium [40]): 25 µg/mL | MIC (Enterococcus faecium [41]): 25 µg/mL
